Our source for the Kd values is publication PMC2823959 (Analytical biochemistry, 2009).

The target in this assay is taurine/α-ketoglutarate dioxygenase (TauD) (Escherichia coli, UniProt P37610). Briefly: UV difference absorption titration of apoprotein with global regression analysis. Format: binding.
taurine/α-ketoglutarate dioxygenase (TauD), sequence (P37610 2-283): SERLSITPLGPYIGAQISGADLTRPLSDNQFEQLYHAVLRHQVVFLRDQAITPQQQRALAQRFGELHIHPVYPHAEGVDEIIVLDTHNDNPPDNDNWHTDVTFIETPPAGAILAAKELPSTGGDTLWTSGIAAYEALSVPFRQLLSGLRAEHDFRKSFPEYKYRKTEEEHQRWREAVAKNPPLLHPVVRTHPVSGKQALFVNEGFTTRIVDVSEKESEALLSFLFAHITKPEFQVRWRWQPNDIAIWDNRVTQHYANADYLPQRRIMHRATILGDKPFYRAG

`NCCS(=O)(=O)O` [taurine] gave a dissociation constant (Kd) of 175 ± 10 µM.
